Where “and” joins values, the source holds several entries; their conditions need not be identical. Equal entries are not always repeated. Where two headings read alike, the source gives them in different places.
Experiments:
AML12 cells = assay: AML12 normal liver cell growth inhibition (CCK8); assay type: cell-based; settings: for Inhibitory rate, AML12 (inhibitory percentage of AML12 cell growth): 10 μM, 3 days
[1] = AML12 normal liver cell growth inhibition (CCK8); assay type: cell-based; settings: mouse, aml12 cells
CTGF [2] = assay: CTGF mRNA expression by RT-qPCR in Huh7 cells; assay type: cell-based, human; settings: dose-dependent
Method: Huh7 and HepG2 liver cancer cells were seeded at 1×10^6 cells/dish and allowed to adhere overnight. The cells were then treated with indicated doses of compounds in medium for 24 hours. The cells were then harvested, and total RNA was purified using the Aurum total RNA mini kit (Bio-Rad #732-6820) according to the manufacturer's instructions. Complementary DNA was synthesized from 500 ng total RNA template by iScript reverse transcription kit (Bio-Rad #1725037) according to the manufacturer's instructions. Real-time PCR reactions utilized 60 ng cDNA and PrimePCR primers from Bio-Rad (Unique Assay ID: human GAPDH-qHsaCEP0041396, human CTGF-qHsaCEP0024255, human CYR61-qHsaCEP0024230) designed for SYBR Green gene expression analysis (Bio-Rad #1726270). All reactions were carried out in triplicate using Quant Studio 3 PCR system (Applied Biosystems). Relative gene expression level was quantified via ΔΔCt method by using GAPDH as an endogenous reference.

CTGF [3] = assay: CTGF protein expression by western blotting in Huh7 cells; assay type: cell-based, human; settings: dose-dependent
Method: Treated Huh7 cells were harvested and lysed in cold RIPA lysis buffer containing […] and phosphatase inhibitors. The protein concentrations were determined using the BCA Protein Assay kit. The prepared protein samples were loaded on and separated by 10% SDS-PAGE gel and then were transferred to PVDF membrane. Blots were blocked for 1 h at RT in blocking buffer and incubated with corresponding primary antibodies: anti-CTGF (ab227180), and anti-GAPDH (ab9485), at 4 ° C overnight. Then the blots were incubated with HRP-conjugated anti-rabbit secondary antibody in blocking buffer for 1.5 h at RT. The membranes were imaged with ChemiDoc MP imaging system.

TEADs = assay: TEAD-specific 8×GTIIC-luciferase reporter assay; assay type: cell-based; settings: for inhibition at 10 µM: 8×GTIIC-luciferase, read-out: Luciferase reporter assay inhibitory rate; for IC50: dose response, read-out: TEADs transcription inhibition IC50, luciferase reporter assay; for TEAD transcription inhibition, luciferase reporter: varying dosage, FIGS. 3A-3B
Method: A series of compounds featuring a chloromethyl ketone moiety were synthesized (Schemes 1-4). The inhibitory rate of this series of compounds was tested using 8×GTIIC-luciferase reporter assay at 10 μM.
Next, the inhibition of TEAD transcription activity of compounds was tested varying the dosage using the 8×GTIIC-luciferase reporter assay. […] The aim was to determine whether its inhibition of TEAD transcription can lead to downregulation of the YAP-TEAD target genes. CTGF is one of the best characterized (bona fide) target gene of YAP and TAZ.
To further investigate the mechanism of the inhibitory effect of compounds in Huh7 cells, TEADs specific luciferase reporter assays were performed with compounds 22 and 12 at several concentrations. […] TEAD downstream gene expression patterns were evaluated in liver cancer cells Huh7, which has been evidenced with relative high expression of YAP and TEAD2.
HEK 293T cells were plated at 2×10^4 cells/well in a 96 well microplate and were transfected with 50 ng of 8×GTIIC-luciferase plasmid (Addgene #34615) and 0.5 ng of pRL-CMV (Promega #E226A) by using lipofectamine 3000 (Life Technologies #L3000). The 8×GTIIc-luciferase reporter is a Yap/Taz-activity reporter containing eight TEAD consensus binding sequences. After 6 h, transfected cells were treated with various concentrations of compounds or DMSO control. Luciferase signals were measured using the Dual Luciferase Reporter Assay System (Promega, E1960) according to the manufacturer's instructions. Experiments were performed in triplicate and repeated at least three times.

Huh7 cells = assay: Huh7 cell proliferation assay (CCK8); assay type: cell-based, human; settings: Homo sapiens
Method: CCK8 assay kit was used to determine antiproliferative activity of synthesized compounds against Huh7 cell line. First, Huh7 cells were seeded into 96-well plates at a density of 3000 cells/well and incubated overnight. Cells were then co-incubated with compounds at 8 concentrations for 72 h. Then, the cell proliferation was determined by the CCK8 kit according to the standard protocol. Experiments were performed in triplicate.

YAP [4] = settings: literature; cited from earlier work
YAP-TEAD = settings: all four TEAD family members; cited from earlier work
YAP [5] = settings: literature; cited from earlier work; remark: listed apart in the source
TEAD [6] = assay: Fluorescence polarization assay; assay type: binding; settings: FIG. 1D
Excerpt: FIGS. 1A-1D depict discovery of C-3 as moderate TEAD transcription inhibitor. (FIG. 1A) The flowchart of the docking-based virtual screening campaign. (FIG. 1B) Predicted binding mode of C-3 in TEAD2 lipid binding pocket.

Huh7 xenograft = assay: Huh7 mouse xenograft model, antitumor efficacy; assay type: in vivo, NSG mouse; settings: Sorafenib 100 mg/kg oral every three days for 24 days
Method: Based on the favorable in vitro potency and low toxicity, the in vivo antitumor efficacy of compound 22 was further evaluated in the NSG mouse (NOD scid gamma mouse) xenograft model from human Huh7 cells. Sorafenib, the first-line treatment for primary hepatocellular carcinoma (HCC) patients, served as the control. Compound 22 was tested as a monotherapy and in combination with Sorafenib.
The animals were administered 10 mg/kg of compound 22 twice a week for four weeks via intraperitoneal (IP) injection.
The mice were administered 50 mg/kg of compound 22 every three day for 24 days via intraperitoneal (IP) injection. Sorafenib was administered orally at a dose of 100 mg/kg following the same schedule.
Tumors were implanted by subcutaneous injection of 5×10^6 Huh7 cells in 100 μL of PBS containing 10% matrix gel (Coming, NY, USA), into the right flank of the mouse. When the tumor volume reached about 85 mm^3, mice were randomized into the vehicle control group (n=5) and a treatment group (n=5). The vehicle group (n=5) received the vehicle only (50% phosal 50 PG, 45% miglyol 810 N and 5% polysorbate 80), while the treatment group (n=5) was given compound 22 (50 mg/kg in 50% phosal 50 PG, 45% miglyol 810 N and 5% polysorbate 80) via IP injection every three days. After 24 days, mice were euthanized. Sorafenib (100 mg/kg, every three day) was dissolved in 75% Ethanol and Cremophor EL (1:1) and administered directly into the animals' stomachs using a gastric probe. Tumor size and body weight were measured every 3 days, and tumor volume was estimated using the formula volume=½×length×width^2. Tumor growth inhibition value (TGI) was calculated as TGI (%) [1−Vt/Vc]×100, where Vc and Vt were […].

TEAD [7] = settings: literature; cited from earlier work
YAP/TEAD = settings: literature; cited from earlier work
[8] = Huh-7, 72 h, 3 days, CCK8, mean ± SD of three independent experiments, read-out: Cell proliferation assay IC50, Huh7

Row | SMILES | Inhibitory rate, AML12 (inhibitory percentage of AML12 cell growth) (AML12 cells) | inhibition at 10 µM (TEADs) | IC50 (Huh7 cells; [8]) | other results
1 | O=C(CCl)c1c[nH]c2cc(Cl)c(OCc3ccc4ccccc4c3)cc12 [Compound 2, 2-chloro-1-(6-chloro-5-(naphthalen-2-ylmethoxy)-1H-indol-3-yl)ethan-1-one] | 32.1% | 95.6% | 2.3 ± 0.6 µM | Toxicity towards normal liver cell line AML12 (AML12 cells): least toxic of the covalent compounds; inhibition at 10 µM ([1]; "at 10 M", read-out: Inhibitory rate of AML cells): 32%; CTGF mRNA expression, Huh7 (CTGF [2]): significantly decreased; CTGF protein expression, Huh7 (CTGF [3]): dose-dependent decrease; IC50 (TEADs): 890 nM and 870 nM; TEAD transcription inhibition, luciferase reporter (TEADs): potent inhibition activity
2 | COc1ccc(-c2cc(-c3ccccc3)nc3c2CC(=O)Nc2ccccc2-3)cc1OC [NSC682769] |  |  |  | YAP binding (YAP [4]): directly bind to YAP; Association of YAP with TEAD family members (YAP-TEAD): inhibit its association with all four TEAD family members; YAP expression (YAP [5]): attenuates YAP expression
3 | O=C(CCl)NCc1c[nH]c2cc(Cl)c(OCc3ccccc3)cc12 [Compound 12, N-((5-(benzyloxy)-6-chloro-1H-indol-3-yl)methyl)-2-chloroacetamide] | 34.2% | 97.8% | 1.2 ± 0.3 µM | CTGF mRNA expression, Huh7 (CTGF [2]): suppressed; CTGF protein expression, Huh7 (CTGF [3]): suppression of CTGF protein production; IC50 (TEADs): 629 nM
4 | N#C/C(=C\c1c[nH]c2cc(Cl)c(OCc3ccc4ccccc4c3)cc12)C(N)=O [Compound 17, (E)-3-(6-chloro-5-(naphthalen-2-ylmethoxy)-1H-indol-3-yl)-2-cyanoacrylamide] | 60.2% | 47.3% | 4.1 ± 0.6 µM | 
5 | O=C(CCl)NCc1c[nH]c2cc(Cl)c(OCc3cccc(C(F)(F)F)c3)cc12 [Compound 15, 2-chloro-N-((6-chloro-5-((3-(trifluoromethyl)benzyl)oxy)-1H-indol-3-yl)methyl) acetamide] | 41.1% | 47.9% | 8.3 ± 0.8 µM | 
6 | C=C(CN(C)C)C(=O)NCc1c[nH]c2cc(Cl)c(OCc3ccccc3)cc12 [Compound 25, N-((5-(benzyloxy)-6-chloro-1H-indol-3-yl)methyl)-2-((dimethylamino)methyl) acrylamide] | 37.2% | 71.8% | 2 ± 0.7 µM | 
7 | O=C(CCl)NCc1c[nH]c2cc(Cl)c(OCc3ccc4ccccc4c3)cc12 [Compound 13, 2-chloro-N-((6-chloro-5-(naphthalen-2-ylmethoxy)-1H-indol-3-yl)methyl)acetamide] | 43.4% | 67.4% | 5.7 ± 1.3 µM | 
8 | Clc1cc2[nH]ccc2cc1OCc1ccccc1 [Compound C-3] |  | 68.3% | 32.5 µM | inhibition at 72 h, 10 µM ([1]; 10 μM, 3 days, read-out: Inhibitory rate, AML12 (inhibitory percentage of AML12 cell growth)): 20%; Fluorescence polarization, inhibition (TEAD [6]): inhibition; IC50 (TEADs): 5000 nM
9 | O=C(CCl)NCc1c[nH]c2cc(Cl)c(OCc3cccc4ccccc34)cc12 [Compound 14, 2-chloro-N-((6-chloro-5-(naphthalen-1-ylmethoxy)-1H-indol-3-yl)methyl)acetamide] | 54.1% | 81.5% | 0.8 ± 0.2 µM | Toxicity towards normal liver cell line AML12 (AML12 cells): significant cytotoxicity; IC50 (Huh7 cells; Huh-7, Table 3 column is in μM, read-out: Huh7 cell growth inhibition / proliferation IC50): 0.8 µM
10 | N#C/C(=C\c1c[nH]c2cc(Cl)c(OCC3CCC(F)(F)CC3)cc12)C(N)=O [Compound 19, (E)-3-(6-chloro-5-((4,4-difluorocyclohexyl)methoxy)-1H-indol-3-yl)-2-cyanoacrylamide] | 30.1% | 60.1% | 5.3 ± 0.5 µM | 
11 | CNC(=O)c1cc(Oc2ccc(NC(=O)Nc3ccc(Cl)c(C(F)(F)F)c3)cc2)ccn1 [Sorafenib, reference compound] |  |  |  | Tumor growth inhibition (TGI) rate (Huh7 xenograft): 76%
12 | COc1cc2[nH]cc(C(=O)CCl)c2cc1OCc1ccc2ccccc2c1 [Compound 5, 2-chloro-1-(6-methoxy-5-(naphthalen-2-ylmethoxy)-1H-indol-3-yl)ethan-1-one] | 77.4% | 93.9% | 2.4 ± 0.5 µM | Toxicity towards normal liver cell line AML12 (AML12 cells): high toxicity; TEAD transcription inhibition, luciferase reporter (TEADs): potent inhibition activity
13 | COc1cc2[nH]cc(C(=O)CCl)c2cc1OCc1ccccc1 [Compound 4, 1-(5-(benzyloxy)-6-methoxy-1H-indol-3-yl)-2-chloroethan-1-one] | 46.1% | 53.7% | 3.8 ± 0.4 µM | 
14 | Cc1ccc2c(c1)c1c3n2CCNC3CCC1 (stereo not drawn) [CPD3.1] |  |  |  | TEAD reporter activity (TEAD [7]): inhibits TEAD reporter activity; YAP/TEAD interaction, co-IP (YAP/TEAD): disrupt YAP/TEAD interaction
